For data set [1], the system named is Candida albicans. As to the kind of experiment: Antifungal activity against Candida albicans ATCC 10231 by twofold serial broth dilution assay. Format: functional. In general terms: In broth dilution the organism is exposed to a series of concentrations in liquid medium.
Data set [2] has as its system Candida albicans. As to the kind of experiment: Antifungal activity against Candida albicans NIH B311 infected in ICR mouse assessed as reduction in number of recovered colony forming units at 0.5 mg/kg, ip administered after 7 hrs inoculation measured after 16 hrs. Format: functional. More on the design: scale not given: the % may be the effect or the level left. To be noted: route intraperitoneal.

Data set [3] has as its system Candida albicans. The experiment in a line: Antifungal activity against Candida albicans NIH B311 after 24 hrs by […]. It counts as functional. To be noted: NIH B311, 24 h. (Agar diffusion results depend on both activity and mobility in agar.)
A further data set relates to Aspergillus fumigatus. The experiment in a line: Antifungal activity against Aspergillus fumigatus ATCC 26934 by twofold serial broth dilution assay. It counts as functional.
A further data set concerns Cryptococcus neoformans. As to the kind of experiment: Antifungal activity against Cryptococcus neoformans ATCC 32264 by twofold serial broth dilution assay. It counts as functional.
Data set [4] concerns Trichophyton mentagrophytes. The experiment in a line: Antifungal activity against Trichophyton mentagrophytes ATCC 9972 by twofold serial broth dilution assay. It counts as functional.
Data set [5] has as its system Candida albicans. As to the kind of experiment: Antifungal activity against Candida albicans WH-D by twofold serial broth dilution assay. Format: functional.
Data set [6] can be described thus: Toxicity in iv dosed ICR mouse assessed as morbidity and lethality after 14 days. Format: organism-based. To be noted: in vivo.
Another data set has as its system Saccharomyces cerevisiae. The experiment in a line: Antifungal activity against Saccharomyces cerevisiae ATCC 9763 by twofold serial broth dilution assay. Format: functional.
The next data set concerns Aspergillus flavus. The experiment in a line: Antifungal activity against Aspergillus flavus ATCC 9170 by twofold serial broth dilution assay. It counts as functional.
Data set [7] can be described thus: Toxicity in ip dosed ICR mouse assessed as morbidity and lethality after 14 days. It counts as organism-based. To be noted: in vivo.

One may read the MIC as the least concentration at which growth counts as inhibited. A word on the LD50: it is the dose expected to kill half of the subjects tested.

Molecules are shown by their SMILES. Values after ≈ are worked out from the molar mass of the structure shown.

Consider `C[C@@H]1[C@H](O)[C@@H](C)/C=C/C=C/C=C/C=C/C=C/C=C/C=C/[C@H](O[C@@H]2O[C@H](C)[C@@H](O)[C@H](N)[C@@H]2O)C[C@@H]2O[C@](O)(C[C@@H](O)C[C@@H](O)[C@H](O)CC[C@@H](O)C[C@@H](O)CC(=O)O[C@H]1C)C[C@H](O)[C@H]2C(=O)O` [AMPHOTERICIN B], for which the minimum inhibitory concentration (MIC) in the data set on Candida albicans [1] was 1.56 µg/mL (≈ 1.69 µM); in the data set on Candida albicans [3] it was 0.39 µg/mL (≈ 0.422 µM); in the data set with Aspergillus fumigatus it was 100 µg/mL (≈ 108 µM); in the data set with Cryptococcus neoformans it was 1.56 µg/mL (≈ 1.69 µM); in data set [4], 50 µg/mL (≈ 54.1 µM); against Candida albicans [5], 0.78 µg/mL (≈ 0.844 µM). Besides, the MIC against Saccharomyces cerevisiae was found to be 25 µg/mL (≈ 27.1 µM); in the data set on Aspergillus flavus it was 50 µg/mL (≈ 54.1 µM). Besides, in the data set with Candida albicans [2], the Activity turned out to be 97.5%. For the same compound, the 50% lethal dose (LD50) at 336 h in [6] is 1 mg/kg.
For the compound `C[C@@H]1CC[C@@]2(OC1)O[C@H]1C[C@H]3[C@@H]4CC=C5C[C@@H](O[C@@H]6O[C@H](CO)[C@@H](O[C@@H]7O[C@@H](C)[C@H](O[C@@H]8O[C@@H](C)[C@H](O)[C@@H](O)[C@H]8O)[C@@H](O)[C@H]7O)[C@H](O)[C@H]6O[C@@H]6O[C@@H](C)[C@H](O)[C@@H](O)[C@H]6O)CC[C@]5(C)[C@H]4CC[C@]3(C)[C@H]1[C@@H]2C` [PENNOGENIN RAHAMNOSYL CHACOTRIOSIDE], the minimum inhibitory concentration (MIC) worked out at 12.5 µg/mL (≈ 12.3 µM) with Candida albicans [1]; 6.25 µg/mL (≈ 6.16 µM) against Candida albicans [3]; 100 µg/mL (≈ 98.5 µM) against Aspergillus fumigatus; 12.5 µg/mL (≈ 12.3 µM) against Cryptococcus neoformans; 3.12 µg/mL (≈ 3.07 µM) in [4]; 12.5 µg/mL (≈ 12.3 µM) against Candida albicans [5]. Besides, the minimal inhibitory concentration (MIC) is 12.5 µg/mL (≈ 12.3 µM) with Saccharomyces cerevisiae and 100 µg/mL (≈ 98.5 µM) with Aspergillus flavus. Besides, the median lethal dose (LD50) at 336 h in data set [7] came out at 28 mg/kg; in [6], 5 mg/kg.
For the compound `C[C@@H]1CC[C@@]2(OC1)O[C@H]1C[C@H]3[C@@H]4CC=C5C[C@@H](O[C@@H]6O[C@H](CO)[C@@H](O[C@@H]7O[C@@H](C)[C@H](O)[C@@H](O)[C@H]7O)[C@H](O)[C@H]6O[C@@H]6O[C@@H](C)[C@H](O)[C@@H](O)[C@H]6O)CC[C@]5(C)[C@H]4CC[C@]3(C)[C@H]1[C@@H]2C` [DIOSCIN], the minimum inhibitory concentration (MIC) against Candida albicans [1] came to 3.12 µg/mL (≈ 3.59 µM); with Candida albicans [3], 1.56 µg/mL (≈ 1.8 µM); in the data set on Aspergillus fumigatus, 50 µg/mL (≈ 57.5 µM); against Cryptococcus neoformans, 25 µg/mL (≈ 28.8 µM); in [4], 6.25 µg/mL (≈ 7.19 µM); against Candida albicans [5] it was 6.25 µg/mL (≈ 7.19 µM). Further, the MIC with Saccharomyces cerevisiae came out at 25 µg/mL (≈ 28.8 µM); in the data set with Aspergillus flavus it was 100 µg/mL (≈ 115 µM). The LD50 at 336 h in data set [7] was 38 mg/kg; in data set [6] it was 10 mg/kg.

Source of the values: ChEMBL document CHEMBL1150744, “Antifungal activity of Trillium grandiflorum constituents” (J Nat Prod, 1988).
